Literature values, collected in US9393439B2, “Radiotherapy combined with hypoxic cell sensitizers” (IntraOp Medical Corporation, priority 2010, dated 2016).

Details: patients, single dose administration; above this level the incidence of side effects increases

## O=C(Cn1ccnc1[N+](=O)[O-])NCCO [Etanidazole, etanidazole]
  maximum tolerated dose (dose that may safely be given): 12 gm/m^2
